In one assay the target is PTGER2 (EP2) (Homo sapiens (Human), UniProt P43116). Put plainly: hEP2 b-arrestin assay (PathHunter HEK 293 PTGER2 b-arrestin cells). It counts as cell-based. As to conditions: antagonistic activity on hEP2; mean where measured multiple times. The method, boiled down: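 HEK293 cells expressing ProLink-tagged EP2 and EA-fused β-arrestin 2 (enzyme fragment complementation) were seeded 24 h, pre-incubated with compound 15 min at 37 °C, then stimulated with 5 μM PGE2 (final) for 120 min.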
PTGER2 (EP2), sequence (P43116 whole entry, the tested form may be a part): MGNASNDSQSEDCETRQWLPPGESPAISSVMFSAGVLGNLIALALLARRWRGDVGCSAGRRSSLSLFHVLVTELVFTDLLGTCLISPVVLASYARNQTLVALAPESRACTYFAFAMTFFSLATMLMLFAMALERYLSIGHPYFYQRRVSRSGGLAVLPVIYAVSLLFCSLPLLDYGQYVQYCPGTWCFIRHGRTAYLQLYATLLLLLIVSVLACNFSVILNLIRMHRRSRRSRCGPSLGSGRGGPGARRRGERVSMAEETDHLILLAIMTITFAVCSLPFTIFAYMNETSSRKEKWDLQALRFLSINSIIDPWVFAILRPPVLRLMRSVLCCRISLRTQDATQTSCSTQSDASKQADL

Another assay has as its target PTRGER4 (EP4) (Homo sapiens (Human), UniProt P35408). As to the kind of experiment: hEP4 b-arrestin assay (PathHunter HEK 293 PTGER4 b-arrestin cells). In kind it is cell-based. As to conditions: antagonistic activity on hEP4; mean where measured multiple times. In short, it runs like this:
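Stably transfected HEK293 cells carrying EP4–ProLink and β-arrestin 2–EA (β-gal fragment complementation), pre-incubated with compound 15 min at 37 °C, then stimulated with PGE2 (20 nM final) for 120 min at 37 °C. Chemiluminescence read after 1 h detection reagent at room temperature; activity per concentration expressed as percent of DMSO control.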

PTRGER4 (EP4), sequence (P35408 whole entry, looked up, the tested form may be a part): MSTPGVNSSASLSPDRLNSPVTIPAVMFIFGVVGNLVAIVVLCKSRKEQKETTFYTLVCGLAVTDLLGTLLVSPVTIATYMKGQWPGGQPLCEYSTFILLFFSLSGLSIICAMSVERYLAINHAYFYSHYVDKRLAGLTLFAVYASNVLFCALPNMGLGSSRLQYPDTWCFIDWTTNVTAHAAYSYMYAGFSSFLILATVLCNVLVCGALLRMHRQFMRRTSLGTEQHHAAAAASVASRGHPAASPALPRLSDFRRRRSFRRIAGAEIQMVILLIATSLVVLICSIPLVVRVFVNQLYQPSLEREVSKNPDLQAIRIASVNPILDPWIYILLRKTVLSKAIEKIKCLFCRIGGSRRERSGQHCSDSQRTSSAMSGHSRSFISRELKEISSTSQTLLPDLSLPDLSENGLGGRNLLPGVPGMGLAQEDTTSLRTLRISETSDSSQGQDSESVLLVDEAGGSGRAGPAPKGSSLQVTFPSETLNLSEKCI

Usually IC50 stands for the point on the concentration scale where inhibition reaches its midpoint. Lower therefore signals inhibition by little substance. On to `CNc1cc(-c2cc(NCCn3c(C)cc4c(F)ccc(C)c43)ncn2)ccc1C(=O)O` [compound 211], for which the IC50 against PTGER2 (EP2) was 0.002 µM; against PTRGER4 (EP4), 0.394 µM.
Take `CCNc1cc(-c2cc(NCCn3c(C)cc4c(Cl)cccc43)ncn2)ccc1C(=O)O` [compound 212]: the concentration for half-maximal inhibition (IC50) against PTGER2 (EP2) was 0.001 µM; against PTRGER4 (EP4), 0.173 µM.
With `CNc1cc(-c2cc(NCCn3c(C)cc4c(OC)cccc43)ncn2)ccc1C(=O)O` [compound 213], the figures for the IC50 at PTGER2 (EP2) and against PTRGER4 (EP4) were 0.003 µM and 0.204 µM, respectively.
On to `COc1c(-c2cc(NCCn3c(C)cc4c(OC)ccc(F)c43)ncn2)csc1C(=O)O` [compound 215], for which the values for the IC50 against PTGER2 (EP2) and against PTRGER4 (EP4) were 0.139 µM and 0.972 µM, respectively.
For `CCOc1cc(-c2cc(NCCn3c(C)cc4c(OC)cccc43)ncn2)sc1C(=O)O` [compound 216], the IC50 came to 0.002 µM on PTGER2 (EP2) and 0.022 µM on PTRGER4 (EP4).
As to `CSc1cc(-c2cc(NCCn3c(C)cc4c(C)ccc(Cl)c43)ncn2)ccc1C(=O)O` [compound 217], the IC50 on PTGER2 (EP2) was found to be 0.025 µM; against PTRGER4 (EP4), 0.381 µM.
For `Cc1cc(-c2cc(NCCn3c(C)cc4c(C)ccc(F)c43)ncn2)cc(F)c1C(=O)O` [compound 218] the same measures were 0.018 µM and 0.519 µM.
`CCc1cc(-c2cc(NCCn3c(C)cc4c(C)cc(F)cc43)ncn2)ccc1C(=O)O` [compound 219]: the results for the IC50 against PTGER2 (EP2) and at PTRGER4 (EP4) were 0.041 µM and 0.454 µM, respectively.
Consider `CCc1cc(-c2cc(NCCn3c(C)cc4c(C)ccc(F)c43)ncn2)ccc1C(=O)O` [compound 220], for which the IC50 against PTGER2 (EP2) stood at 0.018 µM; on PTRGER4 (EP4), 0.216 µM.
On to `CSc1cc(-c2cc(NCCn3c(C)cc4c(Cl)ccc(Cl)c43)ncn2)ccc1C(=O)O` [compound 221], for which the IC50 is 0.009 µM against PTGER2 (EP2) and 0.902 µM against PTRGER4 (EP4).
In the case of `Cc1ccc(F)c2c1cc(C)n2CCNc1cc(-c2cc(Cl)c(C(=O)O)c(Cl)c2)ncn1` [compound 222], the results for the IC50 on PTGER2 (EP2) and on PTRGER4 (EP4) were 0.042 µM and 0.232 µM, respectively.
As for `CCc1cc(-c2cc(NCCn3c(C)cc4c(OC)cccc43)ncn2)ccc1C(=O)O` [compound 223], the IC50 was determined as 0.008 µM against PTGER2 (EP2) and 0.702 µM against PTRGER4 (EP4).
For the compound `CCOc1cc(-c2cc(NCCn3c(C)cc4c(C)cc(Cl)cc43)ncn2)sc1C(=O)O` [compound 224], the IC50 on PTGER2 (EP2) was determined as 0.004 µM; at PTRGER4 (EP4) it was 0.02 µM.
For the compound `CCc1cc(-c2cc(NCCn3c(C)cc4c(OC)ccc(Cl)c43)ncn2)sc1C(=O)O` [compound 225], the IC50 on PTGER2 (EP2) is 0.025 µM; on PTRGER4 (EP4), 0.124 µM.
On to `CCOc1cc(-c2cc(NCCn3c(C)cc4c(C)ccc(F)c43)ncn2)sc1C(=O)O` [compound 227], for which the IC50 came to 0.002 µM against PTGER2 (EP2) and 0.022 µM on PTRGER4 (EP4).
As for `CCOc1cc(-c2cc(NCCn3c(C)cc4cc(C)cc(F)c43)ncn2)sc1C(=O)O` [compound 228], the IC50 against PTGER2 (EP2) was found to be 0.004 µM; against PTRGER4 (EP4) it was 0.035 µM.
As to `CCOc1cc(-c2cc(NCCn3c(C)cc4c(C)cc(F)cc43)ncn2)sc1C(=O)O` [compound 229], the IC50 amounted to 0.002 µM at PTGER2 (EP2) and 0.026 µM against PTRGER4 (EP4).
In the case of `CCc1cc(-c2cc(NCCn3c(C)cc4c(OC)ccc(F)c43)ncn2)sc1C(=O)O` [compound 230], the IC50 against PTGER2 (EP2) came to 0.005 µM; at PTRGER4 (EP4) it was 0.013 µM.
`CCc1cc(-c2cc(NCCn3c(C)cc4cc(OC)cc(F)c43)ncn2)sc1C(=O)O` [compound 231]: the IC50 at PTGER2 (EP2) amounted to 0.185 µM; at PTRGER4 (EP4), 0.133 µM.
On the same counts, the results for `COc1cc(-c2cc(NCCn3c(C)cc4c(C)cc(F)cc43)ncn2)ccc1C(=O)O` [compound 232] are 0.021 µM and 0.732 µM.
Regarding `COc1ccc(F)c2c1cc(C)n2CCNc1cc(-c2ccc(C(=O)O)c(C)c2)ncn1` [compound 233], the IC50 against PTGER2 (EP2) was 0.052 µM; against PTRGER4 (EP4) it was 0.317 µM.
For `CCOc1cc(-c2cc(NCCn3c(C)cc4c(Cl)cccc43)ncn2)ccc1C(=O)O` [compound 234], the IC50 was 0.003 µM against PTGER2 (EP2) and 0.249 µM against PTRGER4 (EP4).
In the case of `CCOc1cc(-c2cc(NCCn3c(C)cc4c(F)c(F)ccc43)ncn2)sc1C(=O)O` [compound 235], the IC50 is 0.002 µM at PTGER2 (EP2) and 0.06 µM against PTRGER4 (EP4).
Turning to `CCOc1cc(-c2cc(NCCn3c(C)cc4ccc(Cl)c(Cl)c43)ncn2)sc1C(=O)O` [compound 236], the IC50 against PTGER2 (EP2) was 0.009 µM; against PTRGER4 (EP4), 0.413 µM.
As for `CCOc1cc(-c2cc(NCCn3c(C)cc4cc(Cl)cc(F)c43)ncn2)sc1C(=O)O` [compound 237], the IC50 on PTGER2 (EP2) is 0.013 µM; on PTRGER4 (EP4), 0.068 µM.
On the same counts, the results for `CCOc1cc(-c2cc(NCCn3c(C)cc4c(Cl)cc(Cl)cc43)ncn2)sc1C(=O)O` [compound 238] are 0.005 µM and 0.04 µM.
Turning to `CCOc1cc(-c2cc(NCCn3c(C)cc4c(Cl)cc(F)cc43)ncn2)sc1C(=O)O` [compound 239], the IC50 was 0.001 µM against PTGER2 (EP2) and 0.019 µM at PTRGER4 (EP4).
Regarding `CCOc1cc(-c2cc(NCCn3c(C)cc4c(Cl)ccc(F)c43)ncn2)sc1C(=O)O` [compound 240], the IC50 on PTGER2 (EP2) was found to be 0.002 µM; on PTRGER4 (EP4), 0.01 µM.
For `CCc1cc(-c2cc(NCCn3c(C)cc4cc(C)cc(F)c43)ncn2)sc1C(=O)O` [compound 241], the IC50 was determined as 0.032 µM on PTGER2 (EP2) and 0.128 µM against PTRGER4 (EP4).
Take `CCc1cc(-c2cc(NCCn3c(C)cc4cc(Cl)cc(F)c43)ncn2)sc1C(=O)O` [compound 242]: the IC50 against PTGER2 (EP2) was 0.111 µM; at PTRGER4 (EP4), 0.216 µM.
For `CCNc1cc(-c2cc(NCCn3c(C)cc4c(F)ccc(F)c43)ncn2)ccc1C(=O)O` [compound 243] the same measures were 0.002 µM and 0.281 µM.
In the case of `CCNc1cc(-c2cc(NCCn3c(C)cc4c(C)cc(F)cc43)ncn2)ccc1C(=O)O` [compound 244], the values for the IC50 against PTGER2 (EP2) and against PTRGER4 (EP4) were 0.002 µM and 0.086 µM, respectively.
In the case of `CCNc1cc(-c2cc(NCCn3c(C)cc4c(C)ccc(F)c43)ncn2)ccc1C(=O)O` [compound 245], the IC50 at PTGER2 (EP2) is 0.009 µM; against PTRGER4 (EP4) it was 0.071 µM.
In the case of `CCNc1cc(-c2cc(NCCn3c(C)cc4c(F)ccc(C)c43)ncn2)ccc1C(=O)O` [compound 246], the IC50 was 0.002 µM at PTGER2 (EP2) and 0.507 µM on PTRGER4 (EP4).
Turning to `CCNc1cc(-c2cc(NCCn3c(C)cc4cccc(OC)c43)ncn2)ccc1C(=O)O` [compound 247], the IC50 amounted to 0.032 µM against PTGER2 (EP2) and 0.681 µM on PTRGER4 (EP4).
With `CCOc1cc(-c2cc(NCCn3c(C#N)cc4c(C)cc(F)cc43)ncn2)sc1C(=O)O` [compound 249], the IC50 was found to be 0.003 µM on PTGER2 (EP2) and 0.009 µM against PTRGER4 (EP4).
In the case of `CNc1cc(-c2cc(NCCn3c(C)cc4c(OC)ccc(Cl)c43)ncn2)ccc1C(=O)O` [compound 250], the values for the IC50 at PTGER2 (EP2) and on PTRGER4 (EP4) were 0.003 µM and 0.103 µM, respectively.
Take `CNc1cc(-c2cc(NCCn3c(C)cc4c(OC)ccc(F)c43)ncn2)ccc1C(=O)O` [compound 251]: the IC50 at PTGER2 (EP2) was 0.006 µM; at PTRGER4 (EP4), 0.037 µM.
In the case of `CNc1cc(-c2cc(NCCn3c(C)cc4c(F)ccc(OC)c43)ncn2)ccc1C(=O)O` [compound 252], the IC50 against PTGER2 (EP2) turned out to be 0.057 µM; against PTRGER4 (EP4), 0.66 µM.
As to `COc1cc(-c2cc(NCCn3c(C)cc4c(OC)cccc43)ncn2)cc(C)c1C(=O)O` [compound 254], the IC50 at PTGER2 (EP2) came out at 0.064 µM; at PTRGER4 (EP4) it was 0.999 µM.
`CCOc1cc(-c2cc(NCCn3c(C)cc4ccc(OC)cc43)ncn2)ccc1C(=O)O` [compound 255]: the IC50 came to 0.012 µM against PTGER2 (EP2) and 0.896 µM on PTRGER4 (EP4).
In the case of `CCOc1cc(-c2cc(NCCn3c(C)cc4c(OC)ccc(Cl)c43)ncn2)sc1C(=O)O` [compound 256], the IC50 is 0.003 µM against PTGER2 (EP2) and 0.029 µM against PTRGER4 (EP4).
Regarding `CCOc1cc(-c2cc(NCCn3c(C)cc4c(OC)cc(F)cc43)ncn2)sc1C(=O)O` [compound 257], the IC50 against PTGER2 (EP2) came to 0.002 µM; on PTRGER4 (EP4), 0.006 µM.
For `CCOc1cc(-c2cc(NCCn3c(C)cc4cc(OC)cc(F)c43)ncn2)sc1C(=O)O` [compound 259] the same measures were 0.037 µM and 0.127 µM.
Turning to `COc1cc(-c2cc(NCCn3c(C)cc4c(OC)ccc(F)c43)ncn2)ccc1C(=O)O` [compound 260], the IC50 against PTGER2 (EP2) came to 0.028 µM; against PTRGER4 (EP4), 0.536 µM.
On the same counts, the results for `CCOc1cc(-c2cc(NCCn3c(C)cc4c(OC)ccc(C)c43)ncn2)sc1C(=O)O` [compound 261] are 0.012 µM and 0.071 µM.
For `Cc1ccc2c(c1)cc(C)n2CCNc1cc(-c2ccc(C(=O)O)c(CC(C)C)c2)ncn1` [compound 262] the same measures were 0.035 µM and 0.925 µM.
`CCCc1cc(-c2cc(NCCn3c(C)cc4cc(Cl)cc(F)c43)ncn2)ccc1C(=O)O` [compound 263]: the IC50 at PTGER2 (EP2) is 0.09 µM; against PTRGER4 (EP4), 0.587 µM.
In the case of `CCc1cc(-c2cc(NCCn3c(C)cc4c(C)cc(F)cc43)ncn2)cc(Cl)c1C(=O)O` [compound 264], the IC50 on PTGER2 (EP2) is 0.071 µM; against PTRGER4 (EP4), 0.287 µM.
Regarding `CCc1cc(-c2cc(NCCn3c(C)cc4c(C)ccc(F)c43)ncn2)cc(F)c1C(=O)O` [compound 265], the IC50 against PTGER2 (EP2) amounted to 0.033 µM; against PTRGER4 (EP4), 0.491 µM.
Turning to `CCCc1cc(-c2cc(NCCn3c(C)cc4cc(C)cc(Cl)c43)ncn2)ccc1C(=O)O` [compound 266], the IC50 against PTGER2 (EP2) worked out at 0.053 µM; against PTRGER4 (EP4) it was 0.953 µM.
In the case of `CCCc1cc(-c2cc(NCCn3c(C)cc4cc(C)cc(F)c43)ncn2)ccc1C(=O)O` [compound 267], the IC50 came out at 0.026 µM against PTGER2 (EP2) and 0.317 µM against PTRGER4 (EP4).
On the same counts, the results for `Cc1cc2c(Cl)cccc2n1CCNc1cc(-c2ccc(C(=O)O)c(CC(C)C)c2)ncn1` [compound 268] are 0.011 µM and 0.635 µM.
